According to patent US8221733B2, “Virucidal disinfectant” (priority 2002, dated 2012):
Like-named read-outs stand apart in the source and are kept apart here.

System: poliovirus type 1 (Mahoney strain)
Type: cell-based
Settings: 0.7% strength formaldehyde

C=O [formaldehyde]
virus concentration (exposure time 5 min): 1.05e+06 mL⁻¹
virus concentration (exposure time 15 min): 1000 mL⁻¹
virus concentration (exposure time 60 min): ≤ 500 mL⁻¹
